Assay results: PubChem BioAssay AID248 (DTP/NCI, 2004)
Several values for one entry are separate records, joined by “and”; a condition that tells them apart may be missing. Identical values can stand only once. Inconclusive results and toxic doses are left out. Peptide text beside a SMILES is read from it. * marks the point of attachment. Tos = Cc1ccc(S(=O)(=O)*)cc1

Tested on: L1210 leukemia ip in BDF1 mice, survival T/C
Assay: NCI In Vivo Anticancer Drug Screen. Data for tumor model L1210 Leukemia (intraperitoneal) in B6D2F1 (BDF1) mice
Conditions: endpoint: mean survival time, higher = longer survival
Procedure, shortened: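 Each compound was tested against a transplantable tumor grown in mice. The endpoint was survival, with treated animals benchmarked against vehicle controls as a simple ratio.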

[1] = dose: 100.0 mg/kg/injection, schedule: Q01DX001 (ip), vehicle: Klucel (hydroxypropylcellulose) (HPC)
[2] = dose: 100.0 mg/kg/injection, schedule: Q04DX003 (ip), vehicle: Klucel (hydroxypropylcellulose) (HPC)
[3] = dose: 100.0 mg/kg/injection, schedule: Q01DX001 (ip), vehicle: saline
[4] = dose: 200.0 mg/kg/injection, schedule: Q01DX001 (ip), vehicle: saline
[5] = dose: 50.0 mg/kg/injection, schedule: Q01DX001 (ip), vehicle: saline
[6] = dose: 100.0 mg/kg/injection, schedule: Q01DX009 (ip), vehicle: saline
[7] = dose: 100.0 mg/kg/injection, schedule: Q04DX003 (ip), vehicle: saline
[8] = dose: 200.0 mg/kg/injection, schedule: Q04DX003 (ip), vehicle: saline
[9] = dose: 400.0 mg/kg/injection, schedule: Q01DX001 (ip), vehicle: saline
[10] = dose: 400.0 mg/kg/injection, schedule: Q01DX009 (ip), vehicle: saline
[11] = dose: 400.0 mg/kg/injection, schedule: Q04DX003 (ip), vehicle: saline
[12] = dose: 25.0 mg/kg/injection, schedule: Q01DX001 (ip), vehicle: saline with Tween-80
[13] = dose: 25.0 mg/kg/injection, schedule: Q01DX009 (ip), vehicle: saline with Tween-80
[14] = dose: 50.0 mg/kg/injection, schedule: Q01DX001 (ip), vehicle: saline with Tween-80
[15] = dose: 50.0 mg/kg/injection, schedule: Q01DX009 (ip), vehicle: saline with Tween-80
[16] = dose: 100.0 mg/kg/injection, schedule: Q01DX001 (ip), vehicle: saline with Tween-80
[17] = dose: 200.0 mg/kg/injection, schedule: Q01DX001 (ip), vehicle: Klucel (hydroxypropylcellulose) (HPC)
[18] = dose: 400.0 mg/kg/injection, schedule: Q01DX001 (ip), vehicle: Klucel (hydroxypropylcellulose) (HPC)
[19] = dose: 100.0 mg/kg/injection, schedule: Q01DX009 (ip), vehicle: Klucel (hydroxypropylcellulose) (HPC)
[20] = dose: 200.0 mg/kg/injection, schedule: Q01DX009 (ip), vehicle: Klucel (hydroxypropylcellulose) (HPC)
[21] = dose: 400.0 mg/kg/injection, schedule: Q01DX009 (ip), vehicle: Klucel (hydroxypropylcellulose) (HPC)
[22] = dose: 100.0 mg/kg/injection, schedule: Q01DX009 (ip), vehicle: saline with Tween-80
[23] = dose: 100.0 mg/kg/injection, schedule: Q04DX003 (ip), vehicle: other
[24] = dose: 200.0 mg/kg/injection, schedule: Q04DX003 (ip), vehicle: other
[25] = dose: 400.0 mg/kg/injection, schedule: Q04DX003 (ip), vehicle: other

For `NNc1cc(NN)c2[nH]cnc2n1`, the T/C (dose: 25.0 mg/kg/injection, schedule: Q01DX001 (ip), vehicle: Klucel (hydroxypropylcellulose) (HPC)) was 100 % of control, the T/C (dose: 25.0 mg/kg/injection, schedule: Q04DX003 (ip), vehicle: Klucel (hydroxypropylcellulose) (HPC)) was 102 % of control and the T/C (dose: 50.0 mg/kg/injection, schedule: Q01DX001 (ip), vehicle: Klucel (hydroxypropylcellulose) (HPC)) was 93 % of control. The T/C (dose: 50.0 mg/kg/injection, schedule: Q04DX003 (ip), vehicle: Klucel (hydroxypropylcellulose) (HPC)) was 105 % of control, the T/C [1] was 100 % of control and 108 % of control and the T/C [2] was 112 % of control.
With `CO[C@]12[C@@H](COC(=O)NCCO)C3=C(C(=O)C(C)=C(N)C3=O)N1C[C@@H]1[C@H]2N1C` (stereo partly drawn) the T/C (dose: 75.0 mg/kg/injection, schedule: Q01DX001 (ip), vehicle: saline) was 112 % of control.
With `O=C(Nc1cccc2ccccc12)OC1CCCCC1Br` (stereo not drawn) the T/C (dose: 200.0 mg/kg/injection, schedule: Q01DX001 (ip), vehicle: saline with Tween-80) was 89 % of control and the T/C (dose: 400.0 mg/kg/injection, schedule: Q01DX001 (ip), vehicle: saline with Tween-80) was 89 % of control.
In the case of `Cc1ccc(C(=O)C(C)CN2CCCCC2)cc1` (stereo not drawn), the T/C [3] was 97 % of control and the T/C [4] was 94 % of control.
In the case of `CN(C)N=Nc1n[nH]nc1C(N)=O`, the T/C [5] was 102 % of control, the T/C (dose: 66.0 mg/kg/injection, schedule: Q01DX Z (ip), vehicle: carboxymethylcellulose (CMC)) was 112 % of control and the T/C [3] was 109 % of control and 118 % of control. For the same compound, the T/C [6] was 113 % of control, the T/C (dose: 100.0 mg/kg/injection, schedule: Q01DX Z (ip), vehicle: carboxymethylcellulose (CMC)) was 106 % of control and the T/C [7] was 98 % of control. For the same compound, the T/C (dose: 134.0 mg/kg/injection, schedule: Q01DX009 (ip), vehicle: saline) was 117 % of control, the T/C (dose: 168.0 mg/kg/injection, schedule: Q01DX Z (ip), vehicle: carboxymethylcellulose (CMC)) was 116 % of control and the T/C [4] was 107 % of control and 118 % of control. For the same compound, the T/C [8] was 120 % of control, the T/C (dose: 287.0 mg/kg/injection, schedule: Q04DX003 (ip), vehicle: saline) was 102 % of control and the T/C (dose: 287.5 mg/kg/injection, schedule: Q01DX001 (ip), vehicle: saline) was 103 % of control. For the same compound, the T/C [9] was 115 % of control, the T/C [10] was 154 % of control and the T/C [11] was 124 % of control. For the same compound, the T/C (dose: 575.0 mg/kg/injection, schedule: Q01DX001 (ip), vehicle: saline) was 109 % of control, the T/C (dose: 575.0 mg/kg/injection, schedule: Q04DX003 (ip), vehicle: saline) was 110 % of control and the T/C (dose: 1150.0 mg/kg/injection, schedule: Q01DX001 (ip), vehicle: saline) was 117 % of control. The T/C (dose: 1150.0 mg/kg/injection, schedule: Q04DX003 (ip), vehicle: saline) was 112 % of control.
In the case of `O=C1C(=C(C(F)(F)Cl)C(F)(F)Cl)C2CCC1C2` (stereo not drawn), the T/C (dose: 6.25 mg/kg/injection, schedule: Q01DX009 (ip), vehicle: saline with Tween-80) was 95 % of control, the T/C (dose: 12.0 mg/kg/injection, schedule: Q01DX001 (ip), vehicle: saline with Tween-80) was 104 % of control and the T/C (dose: 12.5 mg/kg/injection, schedule: Q01DX009 (ip), vehicle: saline with Tween-80) was 95 % of control. The T/C [12] was 100 % of control, the T/C [13] was 102 % of control and 92 % of control and the T/C [14] was 100 % of control. For the same compound, the T/C [15] was 107 % of control and the T/C [16] was 91 % of control.
With `N#CC(C#N)=CN` the T/C [1] was 105 % of control, the T/C [17] was 106 % of control and the T/C [18] was 101 % of control.
In the case of `O=C1c2ccccc2C(F)(F)c2ccccc21`, the T/C [19] was 110 % of control, the T/C [20] was 100 % of control and the T/C [21] was 101 % of control.
With `C=CC[As](=O)(O)O` the T/C (dose: 25.0 mg/kg/injection, schedule: Q04DX003 (ip), vehicle: saline with Tween-80) was 98 % of control, the T/C (dose: 50.0 mg/kg/injection, schedule: Q04DX003 (ip), vehicle: saline with Tween-80) was 104 % of control and the T/C (dose: 100.0 mg/kg/injection, schedule: Q04DX003 (ip), vehicle: saline with Tween-80) was 92 % of control.
`Nc1c(Br)cc2c([nH]c(=O)c3cc(Br)ccc32)c1Br` was tested, and the T/C (dose: 100.0 mg/kg/injection, schedule: Q01DX001 (ip), vehicle: carboxymethylcellulose (CMC)) was 101 % of control, the T/C (dose: 200.0 mg/kg/injection, schedule: Q01DX001 (ip), vehicle: carboxymethylcellulose (CMC)) was 104 % of control and the T/C (dose: 400.0 mg/kg/injection, schedule: Q01DX001 (ip), vehicle: carboxymethylcellulose (CMC)) was 106 % of control.
For `C=CCN(C(=O)C=C)C1CCCCC1`, the T/C [5] was 98 % of control and the T/C [3] was 101 % of control.
In the case of `CC(=O)OC1/C=C/C(C)=C/CC(O)/C=C/C(C)=C/C(NC(=O)C(C)=O)C2(C)C(=O)OC(C1)C(C)C2=O` (stereo not drawn), the T/C [12] was 102 % of control, the T/C [13] was 101 % of control and the T/C [14] was 94 % of control. The T/C [15] was 104 % of control, the T/C [16] was 97 % of control and the T/C [22] was 103 % of control.
With `Cc1ccc(NC(=O)OCC2CC3C=CC2C3)cc1NC(=O)OCC1CC2C=CC1C2` (stereo not drawn) the T/C [19] was 87 % of control, the T/C [20] was 90 % of control and the T/C [21] was 90 % of control.
`Oc1ccc(OCc2ccccc2)cc1` was tested, and the T/C (dose: 25.0 mg/kg/injection, schedule: Q01DX009 (ip), vehicle: Klucel (hydroxypropylcellulose) (HPC)) was 110 % of control, the T/C (dose: 50.0 mg/kg/injection, schedule: Q01DX009 (ip), vehicle: Klucel (hydroxypropylcellulose) (HPC)) was 88 % of control and the T/C [19] was 100 % of control. For the same compound, the T/C [23] was 103 % of control, the T/C [24] was 102 % of control and the T/C [25] was 93 % of control.
With `CCCCCCc1c(C(OC)OC)[nH]c(=S)[nH]c1=O` the T/C [19] was 91 % of control, the T/C [2] was 96 % of control and the T/C [20] was 87 % of control. The T/C (dose: 200.0 mg/kg/injection, schedule: Q04DX003 (ip), vehicle: Klucel (hydroxypropylcellulose) (HPC)) was 98 % of control, the T/C [21] was 87 % of control and the T/C (dose: 400.0 mg/kg/injection, schedule: Q04DX003 (ip), vehicle: Klucel (hydroxypropylcellulose) (HPC)) was 96 % of control.
For `Cc1ccc(S(=O)(=O)NCC(=O)NCC(=O)O)cc1` (Tos-Gly-Gly-OH), the T/C [6] was 105 % of control, the T/C (dose: 200.0 mg/kg/injection, schedule: Q01DX009 (ip), vehicle: saline) was 94 % of control and the T/C [10] was 96 % of control.
In the case of `Cc1cc(C)c(S(=O)(=O)c2ccc([N+](=O)[O-])c3ccccc23)c(C)c1`, the T/C [1] was 107 % of control, the T/C [17] was 91 % of control and the T/C [18] was 101 % of control.
In the case of `Cc1cc2c(C)c3cc(C)c(C)c(C)c3cc2c(C)c1C`, the T/C (dose: 25.0 mg/kg/injection, schedule: Q01DX005 (ip), vehicle: water) was 114 % of control, the T/C (dose: 50.0 mg/kg/injection, schedule: Q01DX005 (ip), vehicle: water) was 94 % of control and the T/C (dose: 100.0 mg/kg/injection, schedule: Q01DX005 (ip), vehicle: water) was 94 % of control and 97 % of control. The T/C (dose: 200.0 mg/kg/injection, schedule: Q01DX005 (ip), vehicle: water) was 96 % of control and the T/C (dose: 400.0 mg/kg/injection, schedule: Q01DX005 (ip), vehicle: water) was 100 % of control.
`COC(=O)Cc1ccccc1OC` was tested, and the T/C [15] was 87 % of control, the T/C [22] was 87 % of control and the T/C (dose: 200.0 mg/kg/injection, schedule: Q01DX009 (ip), vehicle: saline with Tween-80) was 87 % of control.
`CCC(C)NC(C)=O` (stereo not drawn) was tested, and the T/C [7] was 115 % of control, the T/C [8] was 97 % of control and the T/C [11] was 110 % of control.
In the case of `c1cncc(SC23CC4CC(CC(C4)C2)C3)c1`, the T/C [19] was 106 % of control, the T/C [20] was 93 % of control and the T/C [21] was 106 % of control.
With `O=S(=O)(c1ccc(NC(=S)Oc2ccccc2)cc1)c1ccc(NC(=S)Oc2ccccc2)cc1` the T/C [3] was 104 % of control and the T/C [4] was 104 % of control.
In the case of `CCCCCCCCCCCCC[As](=O)(O)CCCCCCCCCCCCC`, the T/C [5] was 95 % of control, the T/C [3] was 103 % of control and the T/C [4] was 101 % of control. The T/C [9] was 91 % of control.
`COc1ccc2c(c1)CCCN2CCC#N` was tested, and the T/C (dose: 50.0 mg/kg/injection, schedule: Q04DX003 (ip), vehicle: other) was 106 % of control, the T/C [23] was 92 % of control and the T/C [24] was 108 % of control. The T/C [25] was 99 % of control.
